Experimental data: patent US12606559B2, “JAK inhibitor compounds, methods for synthesizing same and use thereof” (GALDERMA HOLDING SA, priority 2020, dated 2026)
Like-named read-outs stand apart in the source and are kept apart here.

Assays:
Recombinant JAK1 = target: T1, Recombinant JAK1 (Homo sapiens, UniProt P23458); assay: In vitro enzyme assay (Cisbio kinase assay), JAK1; type: biochemical; conditions: ATP 300 μM; read-out: Enzymatic assay: IC50 JAK1
T1 construct: purchased Life Technologies PV4775
T1 sequence (P23458 whole entry): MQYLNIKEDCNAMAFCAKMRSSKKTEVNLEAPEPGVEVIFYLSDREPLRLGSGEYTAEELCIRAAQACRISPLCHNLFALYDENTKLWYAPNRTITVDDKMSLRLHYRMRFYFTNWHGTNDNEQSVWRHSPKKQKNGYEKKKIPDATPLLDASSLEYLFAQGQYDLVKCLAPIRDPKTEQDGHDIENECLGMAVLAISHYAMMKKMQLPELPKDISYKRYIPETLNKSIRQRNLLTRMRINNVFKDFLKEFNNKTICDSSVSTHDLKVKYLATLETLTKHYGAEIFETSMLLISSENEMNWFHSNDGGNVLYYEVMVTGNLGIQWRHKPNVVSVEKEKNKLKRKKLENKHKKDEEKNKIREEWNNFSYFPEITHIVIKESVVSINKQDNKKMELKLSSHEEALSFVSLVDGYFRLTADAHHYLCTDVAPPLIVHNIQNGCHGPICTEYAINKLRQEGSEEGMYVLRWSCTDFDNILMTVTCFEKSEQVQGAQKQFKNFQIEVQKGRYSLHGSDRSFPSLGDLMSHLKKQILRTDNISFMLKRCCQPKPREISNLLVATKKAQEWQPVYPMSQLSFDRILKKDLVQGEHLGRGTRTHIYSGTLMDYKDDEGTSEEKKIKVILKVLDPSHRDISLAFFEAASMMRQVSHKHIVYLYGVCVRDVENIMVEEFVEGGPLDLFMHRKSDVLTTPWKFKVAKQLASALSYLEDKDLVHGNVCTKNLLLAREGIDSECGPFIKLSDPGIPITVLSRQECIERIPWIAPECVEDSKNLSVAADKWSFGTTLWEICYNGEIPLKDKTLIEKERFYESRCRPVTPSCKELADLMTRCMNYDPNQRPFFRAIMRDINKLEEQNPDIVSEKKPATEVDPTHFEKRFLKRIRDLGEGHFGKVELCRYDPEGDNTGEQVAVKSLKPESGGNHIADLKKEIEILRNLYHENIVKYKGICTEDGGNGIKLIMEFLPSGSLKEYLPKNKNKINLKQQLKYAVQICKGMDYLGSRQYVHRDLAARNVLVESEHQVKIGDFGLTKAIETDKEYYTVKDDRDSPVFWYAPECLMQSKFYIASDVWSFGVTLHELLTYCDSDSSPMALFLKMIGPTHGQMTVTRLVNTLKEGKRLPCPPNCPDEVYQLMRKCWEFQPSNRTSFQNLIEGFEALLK

Chrom logD pH 7.4 = type: physicochemical
[1] = Human skin ex vivo: flux through skin and dermis concentration (Franz cells); type: in vitro ADME; conditions: PG/H2O cream 1 mg/mL
[2] = Protein binding analysis (RED), rat plasma; type: in vitro ADME, male Wistar Han rat; conditions: 5 μM, RED 4 h
Protocol: (§1) The protein binding was assessed in plasma of Human, male balb-c mice, male Wistar Han rat, male Gottingen minipig by rapid equilibrium dialysis (RED) devices. After the plasma and buffer phosphate 50 mM pH7.4 were equilibrated at 37° C., the compound was added to plasma to reach a final concentration of 5 μM. An aliquot of plasma was withdrawn immediately. Equilibration under mild agitation was continued for 4 h. The plasma and buffer were sampled and samples were quenched with 4 volumes of acetonitrile and centrifuged. Supernatant was quantified in HPLC/MS/MS to calculate the recovery and the percentage of compound dissolved in the buffer (unbound) and bound to plasma proteins.

[3] = Protein binding analysis (RED), mouse plasma; type: in vitro ADME, male balb-c mice; conditions: 5 μM, RED 4 h
Protocol: as §1

[4] = Intrinsic clearance in human hepatocytes; type: in vitro ADME; conditions: 2.5 μM
Protocol: (§2) The intrinsic clearance was assessed in cryopreserved Hepatocytes obtained by Human livers donors of mix gender pooled together, male balb-c mouse, male Wistar Han rats and male Göttingen minipig, by looking at the parent compound disappearance. The incubations were performed using a final concentration of viable cells of 1 million/ml (viability above 70%) and test item of 2.5 μM. Incubations were followed up to 2 h. Aliquotes were withdrawn at different time points and reaction quenched with acetonitrile. After centrifugation the supernatant was analyzed by HPLC/MS to quantify the remaining amount of parent in comparison with time 0. The clearance was calculated by fitting the log of the percentage remaining with Graphpad Prism ver.7.

[5] = Intrinsic clearance in minipig hepatocytes; type: in vitro ADME, male Göttingen minipig; conditions: 2.5 μM
Protocol: as §2

[6] = In vivo pharmacokinetic analysis in rat, iv; design: species or system male Wistar Han rat; conditions: iv 1 mg/kg; for clearance / Vd / half-life: male, Wistar Han, rat, whole blood; for clearance: blood, read-out: iv PK rat: Cl; for Vd: read-out: iv PK rat: Vd; for half-life: read-out: iv PK rat: t½ (converted)
Protocol: (§3) One male Wistar Han rat. Compound was administered intravenously to fed animal at a target dose of 1 mg/kg, dose volume: 2 mL/kg, in DMSO/hydroxypropyl-beta-cyclodextrin 20% in phosphate buffer 60 mM pH 7 (5:95). Blood samples were collected at various time points. Blood samples were then assayed using a method based upon protein precipitation with acetonitrile followed by LC/MS/MS analysis. Non-compartmental methods were used for pharmacokinetic analysis of blood concentration versus time data

[7] = In vivo pharmacokinetic analysis in minipig, iv; design: species or system male Göttingen minipigs; conditions: iv 1 mg/kg; for clearance: male, Göttingen, minipig, whole blood, blood, read-out: iv PK minipig: Cl
Protocol: as §3, with “Three” for “One”, “Göttingen minipigs.” for “Wistar Han rat.”, “animals” for “animal”, “volume 1” for “volume: 2”, “DMSO: hydroxypropyl-β-cyclodextrin” for “DMSO/hydroxypropyl-beta-cyclodextrin”, “data.” for “data”

3T3 murine fibroblasts = assay: Phototoxicity, neutral red uptake; type: cell-based; conditions: 3T3 fibroblasts, 7 J/cm2 UVA/UVB
Protocol: Phototoxicity was evaluated in 3T3 murine fibroblasts. Cells were incubated with different concentrations of test compounds. One plate was then exposed to a dose of 7 J/cm2 (UVA/UVB mimicking usual solar exposure) whereas the other plate was kept in the dark. The treatment medium was then replaced with culture medium and after 24 h cell viability was determined by Neutral red uptake. Concentration leading to 50% decrease of viability was calculated in the absence and in the presence of irradiation. The PIF (photo irritation factor) ratio was then calculated: […]).

[8] = target: T2, hERG (Human Ether-a-go-go Related Gene) channel in CHO-K1 cells (Homo sapiens, UniProt Q12809); assay: In vitro hERG channel, whole cell patch clamp; type: cell-based; conditions: up to 30 μM
T2 construct: expressed in transfected cells; host or cells: CHO-K1
T2 sequence (Q12809 whole entry): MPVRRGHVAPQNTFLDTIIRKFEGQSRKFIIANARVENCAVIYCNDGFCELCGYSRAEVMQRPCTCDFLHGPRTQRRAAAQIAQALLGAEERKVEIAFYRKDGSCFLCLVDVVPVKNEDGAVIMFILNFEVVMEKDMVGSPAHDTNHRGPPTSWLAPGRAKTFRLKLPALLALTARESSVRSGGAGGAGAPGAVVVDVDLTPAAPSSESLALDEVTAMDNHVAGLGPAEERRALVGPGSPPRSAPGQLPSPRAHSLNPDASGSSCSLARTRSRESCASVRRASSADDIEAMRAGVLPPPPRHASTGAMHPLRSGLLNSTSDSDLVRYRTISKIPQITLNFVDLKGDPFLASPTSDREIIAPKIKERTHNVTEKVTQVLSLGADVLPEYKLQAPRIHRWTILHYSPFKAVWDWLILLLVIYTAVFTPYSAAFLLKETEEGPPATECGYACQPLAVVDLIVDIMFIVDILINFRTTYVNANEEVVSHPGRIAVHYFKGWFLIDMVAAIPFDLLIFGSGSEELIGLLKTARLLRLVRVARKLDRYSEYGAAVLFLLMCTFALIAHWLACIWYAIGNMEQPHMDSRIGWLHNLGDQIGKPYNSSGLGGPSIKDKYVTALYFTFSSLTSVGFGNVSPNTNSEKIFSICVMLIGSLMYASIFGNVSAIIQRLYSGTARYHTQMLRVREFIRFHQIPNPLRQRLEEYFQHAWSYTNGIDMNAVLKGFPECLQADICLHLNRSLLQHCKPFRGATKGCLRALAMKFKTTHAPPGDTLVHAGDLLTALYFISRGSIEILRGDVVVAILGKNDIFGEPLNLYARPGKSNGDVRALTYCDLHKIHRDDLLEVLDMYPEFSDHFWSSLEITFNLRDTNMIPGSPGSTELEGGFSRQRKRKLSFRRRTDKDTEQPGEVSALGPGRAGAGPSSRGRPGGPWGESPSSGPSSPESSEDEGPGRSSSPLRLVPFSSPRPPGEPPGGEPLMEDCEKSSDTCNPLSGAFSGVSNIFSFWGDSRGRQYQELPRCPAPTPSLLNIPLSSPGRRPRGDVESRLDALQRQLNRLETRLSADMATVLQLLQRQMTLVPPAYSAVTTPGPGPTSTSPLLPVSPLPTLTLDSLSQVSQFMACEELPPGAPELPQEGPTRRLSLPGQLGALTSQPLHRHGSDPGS
Protocol: Blockade of the delayed rectifier potassium current (IKr) encoded by hERG gene (human ether a go go-related gene) can lead to QT interval prolongation and is therefore investigated as part of the cardiac risk assessment. This channel is critical for the repolarisation of the cardiac membrane. The effect of the compounds on IKr was assessed by whole cell patch clamp in stably transfected CHO-K1 cells expressing hERG (Human Ether-a-go-go Related Gene) channel following superfusion at different concentrations up to 30 μM.

[9] = tested on: 44 targets (binding and enzyme/uptake assays); assay: CEREP Safety Screen-44
Protocol: (§4) An in vitro pharmacology assay was conducted to assess the capability of the compounds to interact with different pharmacological targets when tested at 10 μM in different binding and enzyme/uptake assays. The included targets are indicative of potential effects in major organs and drug-drug interactions.
Compound binding was calculated as a % inhibition of the binding of a radioactively labelled ligand specific for each target. […] […].

[10] = Systemic level in PD/IL6 mouse topical dose response; conditions: topical 10 mM, PG/Acetone/Transcutol
pKa = type: physicochemical
acetylcholinesterase (h) = target: T3, acetylcholinesterase (h) (Homo sapiens, UniProt P22303); assay: CEREP Safety Screen-44: acetylcholinesterase (h); type: biochemical
T3 construct: CEREP
T3 sequence (P22303 32-614): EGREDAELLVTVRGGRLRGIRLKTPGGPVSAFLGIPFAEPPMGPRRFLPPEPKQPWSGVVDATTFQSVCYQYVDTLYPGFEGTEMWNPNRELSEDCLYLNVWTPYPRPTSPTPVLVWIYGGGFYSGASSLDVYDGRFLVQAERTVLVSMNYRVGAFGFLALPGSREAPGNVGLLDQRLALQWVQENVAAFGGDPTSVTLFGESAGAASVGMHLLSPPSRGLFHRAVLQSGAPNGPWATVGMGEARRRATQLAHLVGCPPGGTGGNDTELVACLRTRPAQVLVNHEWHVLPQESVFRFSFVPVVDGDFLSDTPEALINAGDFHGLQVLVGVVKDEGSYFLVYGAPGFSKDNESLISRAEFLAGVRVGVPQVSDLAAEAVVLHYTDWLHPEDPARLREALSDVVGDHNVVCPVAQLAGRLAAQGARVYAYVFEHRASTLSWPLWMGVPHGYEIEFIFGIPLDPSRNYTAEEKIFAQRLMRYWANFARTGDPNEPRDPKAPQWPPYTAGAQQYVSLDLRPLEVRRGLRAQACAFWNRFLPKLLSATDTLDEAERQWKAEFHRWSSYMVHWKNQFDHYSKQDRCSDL
Protocol: as §4
Compound binding was calculated as a % inhibition of the binding of a radioactively labelled ligand specific for each target. […] Results showing an inhibition or stimulation higher than 50% are considered to represent significant effects of the test compounds.

[11] = Plasma exposure, dermis concentration and skin/plasma ratio compared to Ruxolitinib; conditions: in vivo
[12] = BALB/c ByJ Rj, in vivo

SMILES | IC50 (Recombinant JAK1) | chromatographic logD (Chrom logD pH 7.4) | dermis concentration [1] | measured flux 6-24 hr [1] | rFU [2] | mFU [3] | Intr. Clear. h heps [4] | Intr. Clear. minipig heps [5] | iv PK rat: Cl (value in brackets, %) [6] | clearance [6] | Vd [6] | half-life [6] | iv PK minipig: Cl (value in brackets, %) [7] | clearance [7] | Phototox (3T3 murine fibroblasts) | IC50 [8] | also measured
CC1CCN(C(=O)C[C@H]2C[C@@H](Nc3c(C#N)cnc4[nH]ccc34)C2)CC1 [Compound B, 4-(((cis)-3-(2-(4-Methylpiperidin-1-yl)-2-oxoethyl)cyclobutyl)amino)-1H-pyrrolo[2,3-b]pyridine-5-carbonitrile] | 4 nM | 2.2 | 0.9 µM | 2.4 ng/cm^2/hr | 2.8% | 5.1% | 147 microL/min/10 6 cells | 248 microL/min/10 6 cells | 46% | 36 mL/min/kg | 0.8 L/kg | 15.6 min | 97% | 27 mL/min/kg | Neg/Neg | > 30000 nM | Safety panel (Cerep): 44 targets % inh @ 10 microM, Nb of targets > 50% inh ([9]; 10 μM): 0/44; PD/IL6 mouse top DR 0.01-10 mM: Systemic level @ 10 mM - 2 hrs [10]: 9.8 nM
CC1(C)CCN(C(=O)C[C@H]2C[C@@H](Nc3c(C#N)cnc4[nH]ccc34)C2)CC1 [Compound A, 4-(((cis)-3-(2-(4,4-dimethylpiperidin-1-yl)-2-oxoethyl)cyclobutyl)amino)-1H-pyrrolo[2,3-b]pyridine-5-carbonitrile] | 3 nM | 2.7 | 0.25 µM | 2.5 ng/cm^2/hr | 3.6% | 5.2% | 264 microL/min/10 6 cells | > 300 microL/min/10 6 cells | 46% | 36 mL/min/kg | 1.4 L/kg | 32.4 min | 111% | 31 mL/min/kg | Neg/Neg | > 30000 nM | pKa (pKa): 3.7; Safety panel (Cerep): 44 targets % inh @ 10 microM, Nb of targets > 50% inh ([9]; 10 microM): 1/44; Safety panel (Cerep): target with > 50% inh @ 10 microM (acetylcholinesterase (h)): acetylcholinesterase; dermis concentration, times higher compared to Ruxolitinib [11]: 2.4; plasma exposure, times lower compared to Ruxolitinib [11]: 2.9; skin/plasma ratio, times higher compared to Ruxolitinib [11]: 7; PD/IL6 mouse top DR 0.01-10 mM: Systemic level @ 10 mM - 2 hrs [12]: 9.8 nM
